Experiments:
[1] = Cholesterol fractionation in ApoE deficient mice on in-diet imirestat; assay type: in vivo; conditions: ApoE deficient 24 week old male mice, 4 weeks in-diet Imirestat; FIG. 11
Protocol: (§1) AKR1A1^−/− mice were generated by Deltagen, Inc. C57BL6/J and ApoE^−/− mice were purchased from The Jackson Laboratory. CETP-ApoB100 transgenic mice were purchased from Taconic Biosciences. All mice were maintained under a 12-hour light/dark cycle. For imirestat treatment studies, mice were provided control chow or chow containing 0.0125% w/w imirestat (125 mg imirestat/1 kg chow) ad libitum. C57BL6/J and ApoE^−/− mice were provided control chow or imirestat chow for 4 weeks starting at age 20 weeks; CETP-ApoB100 transgenic mice were provided control chow or imirestat chow for 8 weeks starting at age 10 weeks.
(§2) Prior to euthanasia, mice were fasted for the indicated length of time. […] Collected blood was allowed to coagulate for 20 minutes at room temperature in a pediatric serum separator tube. Serum was separated by centrifugation at 2000 g for 20 minutes at 4° C. […]
(§3) Total serum cholesterol was determined by standard enzymatic assays. For lipoprotein cholesterol quantification, lipoprotein fractions were separated by gel filtration column chromatography. Approximately 70 fractions were collected and cholesterol in each fraction was quantified by standard enzymatic assays. Calibration of the column with purified lipoprotein fractions permitted quantification of cholesterol in various lipoprotein classes. Serum PCSK9 was quantified by solid phase sandwich ELISA.

PCSK9 [2] = test: Serum PCSK9 levels in ApoE deficient mice on in-diet imirestat (ELISA); assay type: in vivo; conditions: ApoE deficient 24 week old male mice, 4 weeks in-diet Imirestat; FIG. 12
Protocol: as §1, §2, §3

[3] = Total serum cholesterol in ApoE deficient mice on in-diet imirestat; assay type: in vivo; conditions: ApoE deficient 24 week old male mice, 4 weeks in-diet Imirestat; FIG. 10
Protocol: as §1, §2, §3

AKR1A1 = molecular target: T1, AKR1A1 (Mus musculus, UniProt Q9JII6); test: SNO-CoA reductase activity in liver lysate of C57BL6J mice after in-diet imirestat; assay type: in vivo; conditions: C57BL6J 24 week old male mice, 4 weeks in-diet Imirestat; FIG. 9
T1 construct: For AKR1A1 liver activity following in-diet imirestat treatment, frozen liver tissue was dounce homogenized; from tissue; host or cells: liver of C57BL6/J mice (clarified lysate)
T1 sequence (Q9JII6 1-325): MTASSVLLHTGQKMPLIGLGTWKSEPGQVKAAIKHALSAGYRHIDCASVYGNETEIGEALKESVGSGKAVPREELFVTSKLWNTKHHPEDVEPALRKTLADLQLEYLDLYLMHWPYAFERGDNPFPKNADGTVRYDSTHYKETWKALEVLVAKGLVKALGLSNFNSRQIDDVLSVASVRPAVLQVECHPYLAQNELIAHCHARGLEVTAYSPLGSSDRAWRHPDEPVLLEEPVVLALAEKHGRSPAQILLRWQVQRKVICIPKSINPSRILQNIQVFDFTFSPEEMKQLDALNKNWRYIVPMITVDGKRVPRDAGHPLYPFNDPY
Protocol: as §1
Prior to euthanasia, mice were fasted for the indicated length of time. […]
The human AKR1A1 coding sequence was cloned into a pET21b bacterial expression vector. pET21b-AKR1A1 was transformed into Rosetta2(DE3)pLysS E. coli and expression was induced by the addition of 100 μM isopropyl-β-D-1-thiogalactopyranoside at A600nm=0.4. […] Initial rates were calculated using absorbance decrease at 340 nm. IC50 was calculated in GraphPad Prism 7 using non-linear regression analysis. […] Reactions were initiated by the addition of liver lysate and specific activity was calculated from the change in absorbance at 340 nm, protein concentration, and an extinction coefficient of 7.06 mM^−1·cm^−1 (combined for SNO-CoA and NADPH).

[4] = Cholesterol fractionation in C57BL6J mice on in-diet imirestat; assay type: in vivo; conditions: C57BL6J 24 week old male mice, 4 weeks in-diet Imirestat; FIG. 7
Protocol: as §1, §2, §3

PCSK9 [5] = test: Serum PCSK9 levels in C57BL6J mice on in-diet imirestat (ELISA); assay type: in vivo; conditions: C57BL6J 24 week old male mice, 4 weeks in-diet Imirestat; FIG. 8
Protocol: as §1, §2, §3

human AKR1A1 = molecular target: T2, human AKR1A1 (Homo sapiens, UniProt P14550); test: AKR1A1 SNO-CoA reductase activity assay (recombinant enzyme); assay type: biochemical; conditions: 200 nM recombinant AKR1A1, 100 μM NADPH, 100 μM SNO-CoA; FIG. 5; read-out: IC50 for inhibition of AKR1A1 SNO-CoA Reductase Activity
T2 construct: His; made in house; host or cells: Rosetta2(DE3)pLysS E. coli
T2 sequence (P14550 1-325): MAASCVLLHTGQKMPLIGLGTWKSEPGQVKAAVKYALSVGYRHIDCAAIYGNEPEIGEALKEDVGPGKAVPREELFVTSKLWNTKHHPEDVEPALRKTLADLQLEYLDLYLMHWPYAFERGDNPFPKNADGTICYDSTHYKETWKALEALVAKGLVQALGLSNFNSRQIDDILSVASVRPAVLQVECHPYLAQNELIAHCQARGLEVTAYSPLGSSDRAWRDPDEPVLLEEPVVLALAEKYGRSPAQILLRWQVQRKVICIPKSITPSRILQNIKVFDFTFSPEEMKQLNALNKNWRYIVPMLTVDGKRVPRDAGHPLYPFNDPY
Protocol: The human AKR1A1 coding sequence was cloned into a pET21b bacterial expression vector. pET21b-AKR1A1 was transformed into Rosetta2(DE3)pLysS E. coli and expression was induced by the addition of 100 μM isopropyl-β-D-1-thiogalactopyranoside at A600nm=0.4. Bacteria were grown for 4 hours at 25° C. and recombinant His-tagged SCoR was purified via Ni-affinity purification. Triplicate reactions were performed with 200 nM recombinant AKR1A1, 100 μM NADPH, 100 μM SNO-CoA, and increasing concentrations of imirestat dissolved in dimethyl sulfoxide (DMSO). SNO-CoA was prepared by reacting equal volumes of 0.1M CoA in 1M HCl and 0.1M NaNO2 water containing 100 μM EDTA and 100 μM DTPA. Initial rates were calculated using absorbance decrease at 340 nm. IC50 was calculated in GraphPad Prism 7 using non-linear regression analysis. For AKR1A1 liver activity following in-diet imirestat treatment, frozen liver tissue was dounce homogenized (30 dounces) in 50 mM phosphate buffer, pH 7.0 supplemented with 100 μM ethylenediaminetetraacetic acid (EDTA) and diethylenetriamine pentaacetate (DTPA) and 150 mM sodium chloride. […] Reactions were initiated by the addition of liver lysate and specific activity was calculated from the change in absorbance at 340 nm, protein concentration, and an extinction coefficient of 7.06 mM^−1·cm^−1 (combined for SNO-CoA and NADPH).

[6] = Total serum cholesterol in CETP/ApoB100 transgenic mice on in-diet imirestat; assay type: in vivo; conditions: CETP/ApoB100 transgenic male mice, FIG. 13
Protocol: AKR1A1^−/− mice were generated by Deltagen, Inc. C57BL6/J and ApoE^−/− mice were purchased from The Jackson Laboratory. CETP-ApoB100 transgenic mice were purchased from Taconic Biosciences. All mice were maintained under a 12-hour light/dark cycle. For imirestat treatment studies, mice were provided control chow or chow containing 0.0125% w/w imirestat (125 mg imirestat/1 kg chow) ad libitum. […]
as §2, with “C. Serum was stored at −80° C. until analysis. For overnight fasted 12-week-old AKR1A1^−/− mice (FIG. 5), whole blood was provided to University Hospitals' Clinical Laboratory (Cleveland, Ohio) for cholesterol analysis.” for “C.”
as §3

[7] = Total serum cholesterol in C57BL6J mice on in-diet imirestat; assay type: in vivo; conditions: C57BL6J 24 week old male mice, 4 weeks in-diet Imirestat (0.0125% w/w chow); FIG. 6
Protocol: as §1, §2, §3

Q: Which results are given for O=C1NC(=O)C2(N1)c1cc(F)ccc1-c1ccc(F)cc12 [Imirestat, 2,7-Difluoro-2′H,5′H-spiro[fluorene-9,4′-imidazolidine]-2′,5′-dione]?
A: cholesterol fractionation vs control [1]: reduced total serum cholesterol; serum PCSK9 levels vs control (PCSK9 [2]): lower total serum PCSK9 levels; total serum cholesterol vs control [3]: lower total serum cholesterol; SNO-CoA Reductase activity in liver (AKR1A1 liver activity) vs control (AKR1A1): lower AKR1A1 liver activity; cholesterol fractionation vs control [4]: reduced total serum cholesterol; serum PCSK9 levels vs control (PCSK9 [5]): lower total serum PCSK9 levels; IC50 (human AKR1A1): ~120 nM; total serum cholesterol vs control [6]: lower total serum cholesterol; total serum cholesterol vs control [7]: lower total serum cholesterol

— patent US11576900B2, “Compositions and methods of reducing serum cholesterol and PCSK9” (CASE WESTERN RESERVE UNIVERSITY, priority 2017, dated 2023)
